Consider two molecules from patent publication US12371428B2 (Exelixis, Inc., priority 2019, dated 2025).

The target in experiment [1] is KDR (phospho-KDR, VEGF165-stimulated HUVEC cells) (Homo sapiens (Human), UniProt P35968). Nature of the experiment: KDR autophosphorylation ELISA in HUVEC cells (Example G). In kind it is cell-based. Particulars: cellular activity; KDR autophosphorylation ELISA in HUVEC cells. In a few lines: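 Cells seeded, grown 24 h at 37 °C, starved 24 h serum-free; cpd 8-pt curve, 0.3% DMSO, 1 h; VEGF165 100 ng/mL, 5 min; cold PBS wash, lysis with orthovanadate and protease/phosphatase inhibitors; pKDR ELISA; IC50 by 4-parameter logistic regression.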
Chain of KDR (phospho-KDR, VEGF165-stimulated HUVEC cells) (P35968 20-1356): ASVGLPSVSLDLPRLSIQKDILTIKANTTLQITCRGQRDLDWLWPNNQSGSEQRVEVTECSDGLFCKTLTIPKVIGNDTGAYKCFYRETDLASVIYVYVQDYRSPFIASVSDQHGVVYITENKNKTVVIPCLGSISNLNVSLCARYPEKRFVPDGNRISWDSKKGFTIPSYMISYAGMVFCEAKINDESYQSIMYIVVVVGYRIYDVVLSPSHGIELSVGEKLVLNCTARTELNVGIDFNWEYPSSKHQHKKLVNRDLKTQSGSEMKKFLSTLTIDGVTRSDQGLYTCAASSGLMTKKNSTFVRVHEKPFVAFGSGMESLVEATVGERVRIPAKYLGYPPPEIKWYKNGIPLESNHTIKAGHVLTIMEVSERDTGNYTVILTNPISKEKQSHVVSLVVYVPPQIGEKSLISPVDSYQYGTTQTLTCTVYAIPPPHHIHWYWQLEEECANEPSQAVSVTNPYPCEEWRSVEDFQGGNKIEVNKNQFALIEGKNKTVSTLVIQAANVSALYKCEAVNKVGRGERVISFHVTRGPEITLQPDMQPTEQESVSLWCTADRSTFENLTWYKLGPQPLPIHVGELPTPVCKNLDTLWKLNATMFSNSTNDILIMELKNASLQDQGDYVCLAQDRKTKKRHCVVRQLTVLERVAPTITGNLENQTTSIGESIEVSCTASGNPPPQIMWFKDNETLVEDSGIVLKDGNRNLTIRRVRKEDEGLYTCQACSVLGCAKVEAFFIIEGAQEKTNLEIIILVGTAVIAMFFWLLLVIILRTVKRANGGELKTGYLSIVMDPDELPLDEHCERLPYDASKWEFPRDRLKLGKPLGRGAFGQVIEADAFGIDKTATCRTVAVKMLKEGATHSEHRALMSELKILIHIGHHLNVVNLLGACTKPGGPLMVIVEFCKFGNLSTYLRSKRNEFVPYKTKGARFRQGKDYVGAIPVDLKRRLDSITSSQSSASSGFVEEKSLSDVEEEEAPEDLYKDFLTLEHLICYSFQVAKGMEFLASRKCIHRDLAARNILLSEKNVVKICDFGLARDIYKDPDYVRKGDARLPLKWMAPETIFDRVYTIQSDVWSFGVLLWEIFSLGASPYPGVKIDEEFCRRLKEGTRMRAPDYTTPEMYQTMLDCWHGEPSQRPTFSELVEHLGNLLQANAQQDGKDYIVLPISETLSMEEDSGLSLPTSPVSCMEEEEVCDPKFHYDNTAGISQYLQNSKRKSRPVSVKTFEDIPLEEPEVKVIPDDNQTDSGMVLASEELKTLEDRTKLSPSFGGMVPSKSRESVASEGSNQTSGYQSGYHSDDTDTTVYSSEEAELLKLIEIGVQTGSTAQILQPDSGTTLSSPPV
A general note: ELISA stands for enzyme-linked immunosorbent assay.

Experiment [2] has as its target Human MET (residues 956-1390) (Homo sapiens (Human), UniProt P08581). Nature of the experiment: Human Met kinase assay, HTRF KinEase (Example D-2). In kind it is biochemical. Particulars: protocol of Example D-2 (other compounds); read-out: c-Met IC50. The method, boiled down:
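MET kinase domain (956-1390), 0.1 ng/well, in buffer with 5 mM MgCl2, 1 mM DTT and 1 mM MnCl2, phosphorylated a biotinylated peptide at ATP Km for 40 min at RT; 10 concentrations, 3% DMSO final. EDTA-stopped HTRF read after 60 min; IC50 from a 4-parameter logistic fit.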

The target of experiment [3] is Met (phospho-Met, HGF-stimulated PC-3 prostate cancer cells) (Homo sapiens (Human), UniProt P08581). Nature of the experiment: Met autophosphorylation ELISA in PC-3 cells (Example F). In kind it is cell-based. Particulars: cellular activity; Met autophosphorylation ELISA in PC-3 cells; read-out: c-Met IC50. The method, boiled down:
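Serum-starved (3 h) PC-3 cells were treated 1 h with compounds (8-point curve, 0.3% DMSO), then stimulated with 100 ng/mL human HGF for 10 min. Lysate phospho-Met (panTyr) was measured by sandwich ELISA, normalised to DMSO and reference-inhibitor controls. IC50 came from 4-parameter logistic fit.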

Chain of Met (phospho-Met, HGF-stimulated PC-3 prostate cancer cells) (P08581 25-1390): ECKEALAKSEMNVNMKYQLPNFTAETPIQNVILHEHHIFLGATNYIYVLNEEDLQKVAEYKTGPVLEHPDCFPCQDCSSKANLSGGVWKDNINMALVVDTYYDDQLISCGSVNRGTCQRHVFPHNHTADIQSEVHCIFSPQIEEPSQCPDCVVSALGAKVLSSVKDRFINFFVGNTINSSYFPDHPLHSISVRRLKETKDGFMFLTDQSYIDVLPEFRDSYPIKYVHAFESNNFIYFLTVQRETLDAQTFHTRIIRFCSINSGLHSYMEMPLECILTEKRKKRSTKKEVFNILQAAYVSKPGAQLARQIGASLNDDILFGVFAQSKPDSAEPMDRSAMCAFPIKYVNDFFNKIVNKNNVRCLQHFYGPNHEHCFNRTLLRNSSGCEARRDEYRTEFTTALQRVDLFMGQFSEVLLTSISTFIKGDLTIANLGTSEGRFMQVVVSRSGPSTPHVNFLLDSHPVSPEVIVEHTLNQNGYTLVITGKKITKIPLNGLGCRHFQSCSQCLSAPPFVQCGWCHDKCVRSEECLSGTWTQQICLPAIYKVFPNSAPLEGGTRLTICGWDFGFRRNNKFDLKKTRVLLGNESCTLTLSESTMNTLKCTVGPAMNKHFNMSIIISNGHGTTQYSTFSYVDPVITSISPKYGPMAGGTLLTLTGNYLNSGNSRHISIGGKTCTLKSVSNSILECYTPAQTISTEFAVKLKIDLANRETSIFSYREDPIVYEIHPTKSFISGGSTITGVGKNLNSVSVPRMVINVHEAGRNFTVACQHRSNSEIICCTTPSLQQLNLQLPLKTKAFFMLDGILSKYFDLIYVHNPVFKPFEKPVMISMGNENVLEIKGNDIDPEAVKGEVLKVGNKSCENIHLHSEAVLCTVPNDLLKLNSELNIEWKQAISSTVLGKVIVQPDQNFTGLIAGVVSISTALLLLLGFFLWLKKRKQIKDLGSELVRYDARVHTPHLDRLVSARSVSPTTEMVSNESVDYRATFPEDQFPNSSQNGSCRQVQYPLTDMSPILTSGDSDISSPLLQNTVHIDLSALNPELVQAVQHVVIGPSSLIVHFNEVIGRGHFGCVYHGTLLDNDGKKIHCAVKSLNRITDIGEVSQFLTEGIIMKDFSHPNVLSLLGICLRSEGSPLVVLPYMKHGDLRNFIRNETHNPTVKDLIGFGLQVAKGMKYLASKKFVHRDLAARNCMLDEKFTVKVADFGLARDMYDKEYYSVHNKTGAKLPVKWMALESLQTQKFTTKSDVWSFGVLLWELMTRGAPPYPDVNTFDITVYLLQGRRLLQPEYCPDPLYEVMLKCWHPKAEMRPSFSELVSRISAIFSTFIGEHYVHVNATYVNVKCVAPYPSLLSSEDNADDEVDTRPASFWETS
Chain of Human MET (residues 956-1390) (P08581 956-1390): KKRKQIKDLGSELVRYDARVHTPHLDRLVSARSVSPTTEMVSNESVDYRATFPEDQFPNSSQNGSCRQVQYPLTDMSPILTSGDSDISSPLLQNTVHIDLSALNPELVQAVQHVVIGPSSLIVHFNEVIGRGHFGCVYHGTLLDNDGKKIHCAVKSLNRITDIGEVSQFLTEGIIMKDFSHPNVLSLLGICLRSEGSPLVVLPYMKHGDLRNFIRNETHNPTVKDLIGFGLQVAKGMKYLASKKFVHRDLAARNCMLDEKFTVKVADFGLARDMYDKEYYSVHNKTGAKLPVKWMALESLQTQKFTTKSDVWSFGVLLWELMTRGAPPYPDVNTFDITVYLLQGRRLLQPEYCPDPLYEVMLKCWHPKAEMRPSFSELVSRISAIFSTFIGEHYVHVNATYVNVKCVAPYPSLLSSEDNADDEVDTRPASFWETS

The term IC50 denotes the concentration that inhibits the measured activity by half. For `COc1cnc2c(Oc3ccc(NC(=O)c4cn(CC(F)(F)F)c(C)c(-c5ccc(F)cc5)c4=O)cc3F)ccnc2c1` [Compound 261, N-[3-Fluoro-4-[(7-methoxy-1,5-naphthyridin-4-yl)oxy]phenyl]-5-(4-fluorophenyl)-6-methyl-4-oxo-1-(2,2,2-trifluoroethyl)pyridine-3-carboxamide], the IC50 in experiment [1] was above 300 nM; in experiment [2], below 100 nM; in experiment [3], below 100 nM.
As for `COc1cc2nccc(Oc3ccc(NC(=O)c4ncc(C)n(-c5ccc(F)cc5)c4=O)cc3)c2nc1OC` [Compound 262, N-[4-[(6,7-Dimethoxy-1,5-naphthyridin-4-yl)oxy]phenyl]-4-(4-fluorophenyl)-5-methyl-3-oxopyrazine-2-carboxamide], the IC50 in experiment [1], in experiment [2] and in experiment [3] was below 100 nM each time.
